Assay results reported in patent US20100099759A1, “AGRICULTURAL APPLICATIONS OF SILVER […]” (priority 2008, published 2010).
Read-outs that look alike come from different tables or passages of the source.

Test system: Phakopsora pachyrhizi spores
Method: The leaves were examined with a stereoscope in order to identify those with a high degree of sporulation. Leaves were cut in standard size pieces.
Three different concentrations of SDC in distilled water were prepared having 5 ppm, 10 ppm and 15 ppm of silver, respectively. Ten ml of each solution was placed in separate test tubes. Ten selected pieces of soybean leaves were place in each test tube and stirred to suspend the spores present in the rust spots. The same procedure was used for a control, omitting the SDC in the solution. The leaves were left in the solution for two hours. For each of the product dilutions, ten Petri dishes containing water-agar substrate were inoculated with 100 spores each and maintained for 6 hours in the dark. Lactophenol dye was used to stain the mycelium growth, which was evaluated visually be microscope.
A second experiment was performed using the protocol above, with the following additions. Duplicate solutions were made using Well Water from Parana State, Southern Brazil (WW) and Product Water from Reverse Osmosis (PW). The surfactant sodium lauryl sulphate was added to each solution to a concentration of 0.01% w/w. Again, duplicate Petri dishes were inoculated with 100 spores for each concentration of SDC in the two water types and for […] the control.

O=C(O)CC(O)(CC(=O)O)C(=O)[O-].[Ag+] [SDC, silver dihydrogen citrate]
germination of spores from soybean leaves (summary in words) (5, 10 and 15 ppm silver in distilled water, well water and product water from reverse osmosis, with or without surfactant): almost totally inhibited
% Germination (first experiment, 5 ppm silver in distilled water, 2 h in solution, 6 h in the dark, control 16): 5.0%
% Germination (first experiment, 10 ppm silver in distilled water, 2 h in solution, 6 h in the dark, control 16): 4.0%
% Germination (first experiment, 15 ppm silver in distilled water, 2 h in solution, 6 h in the dark, control 16): 5.0%
% Germination (second experiment, 5 ppm, Product Water from Reverse Osmosis (PW), 0.01% w/w sodium lauryl sulphate, control 40): 1.6%
% Germination (second experiment, 5 ppm, Well Water (WW), 0.01% w/w sodium lauryl sulphate, control 40): 1.1%
% Germination (second experiment, 10 ppm, Product Water from Reverse Osmosis (PW), 0.01% w/w sodium lauryl sulphate, control 40): 0.4%
% Germination (second experiment, 10 ppm, Well Water (WW), 0.01% w/w sodium lauryl sulphate, control 40): 0.5%
% Germination (second experiment, 15 ppm, Product Water from Reverse Osmosis (PW), 0.01% w/w sodium lauryl sulphate, control 40): 0.5%
% Germination (second experiment, 15 ppm, Well Water (WW), 0.01% w/w sodium lauryl sulphate, control 40): 0.2%
